Reference: patent US20160106102A1, “KNOWN AND NEW HETEROCYCLIC COMPOUNDS AS PEST CONTROL AGENTS” (BAYER CROPSCIENCE AKTIENGESELLSCHAFT, priority 2013, published 2016)
Read-outs that look alike come from different tables or passages of the source. Values belong to the compound of their own block, whether it stands above or below them.

Experiments:
[1] = log P determination by LC-MS in the acidic range; format: physicochemical
Text: The LC-MS determination in the acidic range is effected at pH 2.7 using 0.1% aqueous formic acid and acetonitrile (contains 0.1% formic acid) as eluents, linear gradient from 10% acetonitrile to 95% acetonitrile. Alternatively, the determination is effected in the acidic range at pH 2.3 using 0.1% aqueous phosphoric acid and acetonitrile as eluents; linear gradient from 10% acetonitrile to 95% acetonitrile.

[2] = system: Myzus persicae; experiment: Myzus persicae - sachet test; format: in vivo; conditions: 100% = all animals killed
Protocol: Myzus persicae—Sachet Test Solvent: 2% by vol. of N-methylpyrrolidone • 2% by vol. of diacetone alcohol To produce an appropriate active ingredient formulation, the active ingredient is mixed with the specified amounts of solvent and the concentrate is diluted to the desired concentration with water. The active ingredient formulation is added to a specific nutrient medium in the desired concentration by pipetting. This plate is sealed and combined with a further plate populated with the green peach aphid (Myzus persicae). After the desired time, the kill in % is determined. 100% means that all the animals have been killed; 0% means that no animals have been killed.

[3] = Table 2, compounds of the formula (I-2), acidic range pH 2.7 or pH 2.3
[4] = Table 3, HPLC on reversed-phase column (C 18), 55° C., acidic range (pH 2.7 or pH 2.3)
[5] = amines of the formula (II-1), acidic range pH 2.7 (0.1% formic acid/acetonitrile) or pH 2.3 (0.1% phosphoric acid/acetonitrile)
[6] = pH 2.7, values given in the synthesis examples and NMR lists, read-out: HPLC-MS: log P
[7] = application rate of 30 ppm in nutrient medium
[8] = pH 2.7, amines of the formula (II-1), acidic range pH 2.7 (0.1% formic acid/acetonitrile) or pH 2.3 (0.1% phosphoric acid/acetonitrile), read-out: log P (acid)
[9] = Table 4, HPLC on reversed-phase column (C 18), 55° C., acidic range (pH 2.7 or pH 2.3)
[10] = application rate of 6 ppm in nutrient medium

log P (acid) [1, 3]: 0.44
SMILES: Cc1nc(NC(=O)c2cccnc2)nn1C(C)C [Compound I-2-20]

log P (acid) [1, 4]: 1.82
SMILES: Cc1nn(-c2ccccc2)nc1NC(=O)c1cccnc1 [Compound I-3-11]

log P (acid) [1, 5]: 1.39
SMILES: Cc1cc(N)nn1CC(=O)Cc1ccccc1Cl [II-1-58]

log P (acid) [1, 3]: 0.47
SMILES: CN(C)C(=O)n1cnc(NC(=O)c2cccnc2)n1 [Compound I-2-9]

log P (acid) ([1]; LC-MS in the acidic range): 1.07
SMILES: CCCNS(=O)(=O)n1nc(NC(=O)c2cccnc2)cc1C [Compound I-1-258]

log P (acid) [1, 4]: 2.09
SMILES: O=C(Nc1nn(-c2ccccc2)nc1Br)c1cccnc1 [Compound I-3-3]

log P (acid) [1, 4]: 1.83
SMILES: O=C(Nc1cnn(-c2ncc(Cl)cc2Cl)n1)c1cccnc1 [Compound I-3-15]

log P (acid) [1, 5]: 0.15
SMILES: CCOCn1nc(N)cc1C [II-1-33]

log P (acid) ([1]; LC-MS in the acidic range): 1.76
SMILES: Cc1ccc(C(=O)Nc2cc(C)n(Cc3ccc(F)cc3)n2)cn1 [Compound I-1-109]

log P (acid) ([1]; LC-MS in the acidic range): 1.34
SMILES: COc1ccc(-n2nc(NC(=O)c3cccnc3)cc2C)cc1 [Compound I-1-200]

log P (acid) [1, 5]: 0.64
SMILES: Cc1cc(N)nn1C(C)(C)C#N [II-1-37]

log P (acid) [1, 5]: 0.98
SMILES: Cc1cc(N)nn1Cn1nc(C2CC2)n(C2CC2)c1=O [II-1-50]

chromatographic logP ([1]; pH 2.7, LC-MS in the acidic range, read-out: log P (acid)): 1.56
chromatographic logP [1, 6]: 1.56
SMILES: Cn1nc(NC(=O)c2cncc(F)c2)cc1OC(F)F [Compound I-1-112, N-[5-(Difluoromethoxy)-1-methyl-1H-pyrazol-3-yl]-5-fluoronicotinamide]

log P (acid) ([1]; LC-MS in the acidic range): 0.09
SMILES: Cc1cc(NC(=O)c2cccnc2)nn1CC(=O)O [Compound I-1-115]

chromatographic logP [1, 6]: 1.34
SMILES: Cc1c[nH]nc1N1C(=O)c2ccccc2C1=O [2-(4-Methyl-1H-pyrazol-3-yl)-1H-isoindole-1,3(2H)-dione]

SMILES: CCOC(=O)Cn1ccc(NC(=O)c2cccnc2)n1 [Compound I-1-69]
efficacy (kill in %) [2, 7]: 100%

chromatographic logP [1, 8]: < -0.23
chromatographic logP [1, 6]: < -0.23
SMILES: Cc1cc(N)nn1Cc1ncccn1 [II-1-23, 5-Methyl-1-(pyrimidin-2-ylmethyl)-1H-pyrazole-3-amine]

log P (acid) ([1]; LC-MS in the acidic range): 1.51
SMILES: Cn1nc(NC(=O)c2cncc(F)c2)cc1C(F)F [Compound I-1-222]

log P (acid) [1, 3]: 1.07
SMILES: Cc1nc(-n2cnc(NC(=O)c3cccnc3)n2)nc(C)c1C [Compound I-2-25]

log P (acid) [1, 5]: 1.06
SMILES: Nc1cc(C(F)(F)F)n(Cc2ncccn2)n1 [II-1-35]

log P (acid) [1, 5]: 0.44
SMILES: Cc1cc(N)nn1CN1CCS/C1=N/C#N [II-1-44]

log P (acid) ([1]; LC-MS in the acidic range): 0.88
SMILES: Cc1ccnc(Cn2nc(NC(=O)c3ccnnc3)cc2C)n1 [Compound I-1-253]

log P (acid) ([1]; LC-MS in the acidic range): 0.79
SMILES: CCOC(=O)c1cn(Cc2ccccc2)nc1NC(=O)c1cccnc1 [Compound I-1-272]

log P (acid) ([1]; LC-MS in the acidic range): 1.2
SMILES: Cc1cc(NC(=O)c2ccnnc2)nn1CC(F)(F)F [Compound I-1-250]

log P (acid) ([1]; LC-MS in the acidic range): 1.25
SMILES: CSc1c(Cl)c(NC(=O)c2cccnc2)nn1C [Compound I-1-201]

log P (acid) [1, 3]: 1.39
SMILES: O=C(Nc1ncn(Cc2c(Cl)cccc2Cl)n1)c1cccnc1 [Compound I-2-8]

log P (acid) [1, 5]: 0.73
SMILES: CC(C)=CCn1nc(N)cc1C [II-1-59]

log P (acid) ([1]; LC-MS in the acidic range): 2.48
SMILES: Cc1cc(NC(=O)c2ccc(Cl)nc2)nn1Cc1ccccc1 [Compound I-1-98]

log P (acid) [1, 5]: 0.81
SMILES: COc1cc(OC)nc(Cn2nc(N)cc2C)n1 [II-1-12]

log P (acid) [1, 4]: 2.44
SMILES: O=C(Nc1nn(-c2ccccc2)nc1C(F)(F)F)c1cccnc1 [Compound I-3-12]

log P (acid) ([1]; LC-MS in the acidic range): 1.13
SMILES: Cn1nc(NC(=O)c2cccnc2)c(Br)c1OC(F)F [Compound I-1-47]

log P (acid) [1, 5]: 0.72
SMILES: COc1nn(Cn2nc(N)cc2C)c(=O)n1C1CC1 [II-1-47]

chromatographic logP [1, 6]: 0.5
SMILES: Cc1cc(N)nn1-c1ncccn1 [5-Methyl-1-(pyrimidin-2-yl)-1H-pyrazole-3-amine]

chromatographic logP [1, 6]: 2.21
SMILES: CCSCn1nc([N+](=O)[O-])cc1C [1-[(Ethylsulphanyl)methyl]-5-methyl-3-nitro-1H-pyrazole]

log P (acid) [1, 4]: 2.24
SMILES: Cc1nn(-c2ccc(Cl)cc2Cl)nc1NC(=O)c1cccnc1 [Compound I-3-19]

log P (acid) ([1]; LC-MS in the acidic range): 2.57
SMILES: Cc1cc(N(Cc2ccc3nsnc3c2)C(=O)c2cccnc2)nn1Cc1ccc2nsnc2c1 [Compound I-1-343]

log P (acid) ([1]; LC-MS in the acidic range): 2.19
SMILES: Cc1cc(NC(=O)c2cccnc2)nn1-c1ccccn1 [Compound I-1-230]

log P (acid) ([1]; LC-MS in the acidic range): 1.1
SMILES: Cc1cnn(Cn2nc(NC(=O)c3ccnnc3)cc2C)c1 [Compound I-1-256]

log P (acid) [1, 3]: 1.11
SMILES: COc1cc(OC)nc(-n2cnc(NC(=O)c3cccnc3)n2)n1 [Compound I-2-24]

log P (acid) [1, 3]: 1.23
SMILES: COc1nc(NC(=O)c2cccnc2)nn1-c1ccccc1 [Compound I-2-28]

log P (acid) ([1]; LC-MS in the acidic range): 2.52
SMILES: COc1ccc(C(=O)Nc2cc(C)n(Cc3ccccc3F)n2)cn1 [Compound I-1-105]

chromatographic logP [1, 8]: 0.63
chromatographic logP [1, 6]: 0.63
SMILES: CCSCn1nc(N)cc1C [II-1-61, 1-[(Ethylsulphanyl)methyl]-5-methyl-1H-pyrazole-3-amine]

log P (acid) [1, 5]: 0.20
SMILES: N#Cc1cc(N)nn1Cc1ncccn1 [II-1-62]

log P (acid) ([1]; LC-MS in the acidic range): 2.51
SMILES: COc1ccc(C(=O)Nc2cc(C)n(Cc3cccc(F)c3)n2)cn1 [Compound I-1-94]

chromatographic logP [1, 6]: 1.23
SMILES: Cc1cc(N)nn1C(=O)OC(C)(C)C [tert-Butyl 3-amino-5-methyl-1H-pyrazole-1-carboxylate]

log P (acid) [1, 3]: 0.67
SMILES: O=C(Nc1ncn(-c2ncccc2Br)n1)c1cccnc1 [Compound I-2-15]

log P (acid) [1, 9]: 1.35
SMILES: COc1cc(OC)nc(-n2nnc(NC(=O)c3cccnc3)n2)n1 [Compound I-4-4]

log P (acid) [1, 5]: 0.57
SMILES: CC(C)=NOCn1nc(N)cc1C [II-1-52]

chromatographic logP [1, 6]: 0.45
SMILES: Cc1cc(C(=O)O)nn1Cc1ncccn1 [5-Methyl-1-(pyrimidin-2-ylmethyl)-1H-pyrazole-3-carboxylic acid]

log P (acid) ([1]; LC-MS in the acidic range): 1.16
SMILES: O=C(Nc1ccn(-c2nccs2)n1)c1cccnc1 [Compound I-1-273]

log P (acid) ([1]; LC-MS in the acidic range): 2.89
SMILES: Cc1cc(F)c(Cn2nc(NC(=O)c3cccnc3)cc2C)cc1SCC(F)(F)F [Compound I-1-337]

log P (acid) ([1]; LC-MS in the acidic range): 3.28
SMILES: Cc1cc(NC(=O)c2cnc(Cl)c(Cl)c2)nn1Cc1ccccc1F [Compound I-1-103]

log P (acid) [1, 9]: 0.76
SMILES: CCCn1nnc(NC(=O)c2cccnc2)n1 [Compound I-4-9]

log P (acid) [1, 5]: 0.49
SMILES: Nc1cc(Cl)n(Cc2ncccn2)n1 [II-1-36]

log P (acid) [1, 5]: 0.77
SMILES: Cc1cc(N)nn1Cc1ccc(Cl)nc1 [II-1-5]

chromatographic logP [1, 8]: 0.56
chromatographic logP [1, 6]: 0.56
SMILES: Nc1cc(Br)n(Cc2ncccn2)n1 [II-1-30, 5-Bromo-1-(pyrimidin-2-ylmethyl)-1H-pyrazole-3-amine]

log P (acid) [1, 3]: 1.41
SMILES: CCOc1nc(OCC)nc(-n2cnc(NC(=O)c3cccnc3)n2)n1 [Compound I-2-10]

log P (acid) [1, 4]: 1.51
SMILES: O=C(Nc1nn(-c2ncccc2Cl)nc1Cl)c1cccnc1 [Compound I-3-21]

log P (acid) ([1]; LC-MS in the acidic range): 1.6
SMILES: COc1ccc(-n2ccc(NC(=O)c3cccnc3)n2)cc1 [Compound I-1-271]

chromatographic logP [1, 6]: 2.67
SMILES: O=[N+]([O-])c1ccn(Cc2ncc(C(F)(F)F)cc2Cl)n1 [3-Chloro-2-[(3-nitro-1H-pyrazol-1-yl)methyl]-5-(trifluoromethyl)pyridine]

log P (acid) ([1]; LC-MS in the acidic range): 0.58
SMILES: O=C(Nc1nn(Cc2ncccn2)cc1Cl)c1cccnc1 [Compound I-1-137]

log P (acid) ([1]; LC-MS in the acidic range): 1.67
SMILES: Cn1nc(NC(=O)c2cncc(F)c2)c(Br)c1OC(F)F [Compound I-1-113]

log P (acid) [1, 3]: 0.71
SMILES: CCn1nc(NC(=O)c2cccnc2)nc1SC [Compound I-2-12]

log P (acid) ([1]; LC-MS in the acidic range): 1.19
SMILES: Cn1nc(NC(=O)c2cccnc2)c(Cl)c1OC(F)F [Compound I-1-275]

log P (acid) [1, 4]: 2.93
SMILES: O=C(Nc1nn(-c2ccc(Cl)cc2)nc1C(F)(F)F)c1cccnc1 [Compound I-3-20]

SMILES: Nc1ccn(C(CF)CF)n1 [II-1-7]
log P (acid) [1, 5]: −0.09

log P (acid) ([1]; LC-MS in the acidic range): 2.6
SMILES: Cc1cc(NC(=O)c2ccc(Cl)nc2)nn1Cc1cccc(F)c1 [Compound I-1-106]

log P (acid) [1, 4]: 2.04
SMILES: O=C(Nc1nn(-c2ccccc2Cl)nc1Cl)c1cccnc1 [Compound I-3-13]

log P (acid) [1, 5]: <−0.23
SMILES: Cc1cc(N)nn1Cn1ccnn1 [II-1-45]

log P (acid) [1, 5]: <−0.23
SMILES: Cc1cc(N)nn1Cc1cccnc1 [II-1-28]

log P (acid) [1, 5]: 0.19
SMILES: Cc1cc(N)nn1Cc1nccs1 [II-1-10]

log P (acid) [1, 5]: 0.13
SMILES: Cc1cc(N)nn1CCCl [II-1-13]

SMILES: O=C(Nc1ccn(-c2ccc(F)cc2F)n1)c1cccnc1 [Compound I-1-85]
efficacy (kill in %) [2, 10]: 100%
efficacy (kill in %) [2, 7]: 100%

log P (acid) [1, 3]: 0.29
SMILES: CCCn1cnc(NC(=O)c2cccnc2)n1 [Compound I-2-21]

log P (acid) [1, 5]: 1.13
SMILES: Cc1cc(N)nn1CC=C(Cl)Cl [II-1-56]

SMILES: CCn1nnc(NC(=O)c2cccnc2)n1 [Compound I-4-1]
efficacy (kill in %) [2, 7]: 100%

SMILES: COC(=O)CCCn1nc(NC(=O)c2cccnc2)cc1C [Compound I-1-67]
efficacy (kill in %) [2, 10]: 100%
efficacy (kill in %) [2, 7]: 100%

SMILES: O=C(Nc1ccn(Cc2ccc(Cl)cc2Cl)n1)c1cccnc1 [Compound I-1-82]
efficacy (kill in %) [2, 7]: 100%
